In patent US5602101A, “Antithrombotic agents” (priority 1994, dated 1997):

Experiments:
Format in all cases: biochemical
factor Xa = molecular target: T1, factor Xa (Homo sapiens, UniProt P00742); assay: Serine protease inhibition, factor Xa (chromogenic substrate), Kass; settings: substrate N-Benzoyl-Ile-Glu-Gly-Arg-p-nitroanilide
T1 construct: Human factors X, Xa, IXa, XIa, and xIIa are purchased from Enzyme Research Laboratories; purchased Enzyme Research Laboratories, South Bend, Ind
Procedure: (§1) The assay is carried out by mixing 50 μl buffer (0.03M Tris, 0.15M NaCl, pH 7.4), 25 μl of human thrombin solution (purified human thrombin Enzyme Research Laboratories, South Bend, Ind.) at 8 NIH units/ml and 25 μl of test compound in a solvent (50% aqueous methanol (v:v)). Then 150 μl of an aqueous solution of the chromogenic substrate (at 0.25 mg/ml) are added and the rates of hydrolysis of the substrate are measured by monitoring the reactions at 405 nm for the release of p-nitroaniline. Standard curves are constructed by plotting free thrombin concentration against hydrolysis rate. The hydrolysis rates observed with test compounds are then converted to "free thrombin" values in the respective assays by use of the standard curves. The bound thrombin (bound to test compound) is calculated by subtracting the amount of free thrombin observed in each assay from the known initial amount of thrombin used in the assay. The amount of free inhibitor in each assay is calculated by subtracting the number of moles of bound thrombin from the number of moles of added inhibitor (test compound).
(§2) Kass is calculated for a range of concentrations of test compounds and the mean value is reported in units of liter per mole.
(§3) By substantially following the procedures described above for human thrombin, and using other human blood coagulation system serine proteases, and using fibrinolytic system serine proteases, with the appropriate chromogenic substrate, identified below, selectivity of the compounds of the present invention with respect to the coagulation factor serine proteases and to the fibrinolytic serine proteases are evaluated as well as their substantial lack of interference with human plasma clot fibrinolysis.
(§4) Human factors X, Xa, IXa, XIa, and xIIa are purchased from Enzyme Research Laboratories, South Bend, Ind.; human urokinase from Leo Pharmaceuticals, Denmark; and recombinant activated Protein C (aPC) is prepared at Eli Lilly and Co. substantially according to U.S. Pat. No. 4,981,952 incorporated by reference herein in its entirety. Chromogenic substrates: N-Benzoyl-Ile-Glu-Gly-Arg-p-nitroanilide (for factor Xa); N-Cbz-D-Arg-Gly-Arg-p-nitroanilide (for factor IXa assay as the factor Xa substrate) pyroglutamyl-Pro-Arg-p-nitroanilide (for factor XIa and for aPC); H-D-Pro-Phe-Arg-p-nitroanilide (for factor XIIa); and pyroglutamyl-Gly-Arg-p-nitroanilide (for urokinase); are purchased from KabiVitrum, Stockholm, Sweden, or from Midwest Biotech, Fishers, Indiana. Bovine trypsin is purchased from Worthington Biochemicals, Freehold, N.J., and human plasma kallikrein from Kabi Vitrum, Stockholm, Sweden. N-Benzoyl-Phe-Val-Arg-p-nitroanilide, the substrate for human thrombin and for trypsin, is synthesized according to procedures described above for the compounds of the present invention, known methods of peptide coupling from commercially available reactants, or was purchased from Midwest Biotech, Fishers, Ind. Human plasmin is purchased from Boehringer Mannheim, Indianapolis, Ind.; nt-PA is purchased as single chain activity reference from American Diagnostics, Greenwich, Conn.; modified-t-PA6 (mt-PA6) is prepared at Eli Lilly and Company by procedure known in the art (See, Burck, et al., J. Biol. Chem., 265, […] (1990). Plasmin chromogenic substrate H-D-Val-Leu-Lys-p-nitroanilide and tissue plasminegen activator (t-PA) substrate H-D-Ile-Pro-Arg-p-nitroanilide are purchased from Kabi Vitrum, Stockholm, Sweden.

Human plasmin = molecular target: T2, Human plasmin (Homo sapiens, UniProt P00747); assay: Serine protease inhibition, plasmin (chromogenic substrate), Kass; settings: substrate H-D-Val-Leu-Lys-p-nitroanilide
T2 construct: Human plasmin is purchased from Boehringer Mannheim, Indianapolis, Ind; purchased Boehringer Mannheim, Indianapolis, Ind
Procedure: as §1, §2, §3, §4

Human Plasma [1] = assay: Anticoagulation in human plasma, prothrombin time (PT); settings: concentration required to double the PT
Procedure: (§5) Dog plasma and rat plasma are obtained from conscious mixed-breed hounds (either sex, Hazelton-LRE, Kalamazoo, Mich., U.S.A.) or from anesthetized male Sprague-Dawley rats (Harlan Sprague-Dawley, Inc., Indianapolis, Ind., U.S.A.) by venipuncture into 3.8 percent citrate. Fibrinogen is prepared from in-date ACD human blood as the fraction I-2 according to previous procedures and specifications. Smith, Biochem. Chem. […] Human fibrinogen is also purchased as 98 percent pure/plasmin free from American Diagnostics, Greenwich, Conn. Coagulation reagents ACTIN, Thromboplastin, and Human plasma are from Baxter Healthcare Corp., Dade Division, Miami, Fla. Bovine thrombin from Parke-Davis (Ann Arbor, Mich.) is used for coagulation assays in plasma. Coagulation assay procedures are as previously described. Smith, et al., Thrombosis Research, 5, 163-174 (1988). A CoAScreener coagulation instrument (American LABor, Inc.) is used for all coagulation assay measurements. The prothrombin time (PT) is measured by adding 0.05 ml saline and 0.05 ml Thromboplastin-C reagent to 0.05 ml test plasma. The activated partial thromboplastin time (APTT) is measured by incubation of 0.05 ml test plasma with 0.05 ml Actin reagent for 120 seconds followed by 0.05 ml CaCl2 (0.02M). […] The compounds of formula I are added to human or animal plasma over a wide range of concentrations to determine prolongation effects on the APTT, PT, and TT assays. Linear extrapolations are performed to estimate the concentrations required to double the clotting time for each assay.

Human Plasma [2] = assay: Anticoagulation in human plasma, thrombin time (TT); settings: concentration required to double the thrombin time
Procedure: as §5

Bovine trypsin = molecular target: T3, Bovine trypsin (Bos taurus, UniProt P00760); assay: Serine protease inhibition, trypsin (chromogenic substrate), Kass; settings: substrate N-Benzoyl-Phe-Val-Arg-p-nitroanilide
T3 construct: Bovine trypsin is purchased from Worthington Biochemicals, Freehold, N.J; purchased Worthington Biochemicals, Freehold, N.J
T3 sequence (P00760 24-246): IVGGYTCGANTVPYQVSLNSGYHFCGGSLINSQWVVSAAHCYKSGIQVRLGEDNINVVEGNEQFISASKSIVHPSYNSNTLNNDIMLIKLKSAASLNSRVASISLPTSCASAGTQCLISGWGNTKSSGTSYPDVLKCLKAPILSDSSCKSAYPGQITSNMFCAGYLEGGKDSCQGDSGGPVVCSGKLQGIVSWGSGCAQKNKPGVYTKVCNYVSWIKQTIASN
Procedure: as §1, §2, §3, §4

[3] = molecular target: T4, tissue plasminogen activator (t-PA) (Homo sapiens, UniProt P00750); assay: Serine protease inhibition, t-PA (chromogenic substrate), Kass; settings: substrate H-D-Ile-Pro-Arg-p-nitroanilide
T4 construct: purchased American Diagnostics, Greenwich, Conn
Procedure: as §1, §2, §3, §4

Human Plasma [4] = assay: Anticoagulation in human plasma, activated partial thromboplastin time (APTT); settings: concentration required to double the APTT
Procedure: as §5

human thrombin = molecular target: T5, human thrombin (Homo sapiens, UniProt P00734); assay: Inhibition of amidase activity of thrombin (chromogenic substrate), Kass; settings: substrate N-benzoyl-Phe-Val-Arg-p-nitroanilide, pH 7.4
T5 construct: purified human thrombin Enzyme Research Laboratories, South Bend, Ind; purchased Enzyme Research Laboratories, South Bend, Ind
Procedure: as §1
The Kass value is the hypothetical equilibrium constant for the reaction between thrombin and the test compound (I). [drawing 53]
as §2

T1 sequence (P00742 235-488 limits assumed): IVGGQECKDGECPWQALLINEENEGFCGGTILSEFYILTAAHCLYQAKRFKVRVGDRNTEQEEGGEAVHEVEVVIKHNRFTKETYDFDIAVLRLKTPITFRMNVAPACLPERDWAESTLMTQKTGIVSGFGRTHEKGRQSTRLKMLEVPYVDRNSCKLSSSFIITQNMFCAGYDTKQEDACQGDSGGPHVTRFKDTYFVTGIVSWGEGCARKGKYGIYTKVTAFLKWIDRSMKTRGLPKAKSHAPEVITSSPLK
T1 sequence (P00742 41-179 partner limits assumed): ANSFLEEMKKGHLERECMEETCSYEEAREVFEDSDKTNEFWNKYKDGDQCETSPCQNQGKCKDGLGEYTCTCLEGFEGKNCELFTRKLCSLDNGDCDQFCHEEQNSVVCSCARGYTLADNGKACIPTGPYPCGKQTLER
T2 sequence (P00747 581-810 limits assumed): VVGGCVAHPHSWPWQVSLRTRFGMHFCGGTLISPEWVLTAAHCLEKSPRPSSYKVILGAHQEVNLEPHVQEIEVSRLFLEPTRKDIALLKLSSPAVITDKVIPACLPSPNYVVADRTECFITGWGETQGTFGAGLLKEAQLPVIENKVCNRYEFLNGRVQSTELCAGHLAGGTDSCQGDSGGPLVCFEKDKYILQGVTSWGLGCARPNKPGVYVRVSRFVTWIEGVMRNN
T2 sequence (P00747 97-580 partner limits assumed): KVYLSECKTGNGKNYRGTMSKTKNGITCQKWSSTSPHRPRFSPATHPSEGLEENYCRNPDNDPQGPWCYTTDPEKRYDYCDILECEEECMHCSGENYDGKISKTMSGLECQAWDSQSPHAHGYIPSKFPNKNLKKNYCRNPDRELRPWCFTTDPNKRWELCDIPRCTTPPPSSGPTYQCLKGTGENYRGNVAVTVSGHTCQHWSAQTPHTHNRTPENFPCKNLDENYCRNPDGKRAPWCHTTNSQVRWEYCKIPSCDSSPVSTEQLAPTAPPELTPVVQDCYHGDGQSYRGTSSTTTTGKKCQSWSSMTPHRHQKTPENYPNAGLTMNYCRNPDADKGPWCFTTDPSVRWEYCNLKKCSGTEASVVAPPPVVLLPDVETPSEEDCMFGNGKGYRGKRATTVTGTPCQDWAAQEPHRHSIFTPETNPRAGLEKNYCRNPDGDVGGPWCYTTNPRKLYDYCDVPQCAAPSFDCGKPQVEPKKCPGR
T4 sequence (P00750 36-562): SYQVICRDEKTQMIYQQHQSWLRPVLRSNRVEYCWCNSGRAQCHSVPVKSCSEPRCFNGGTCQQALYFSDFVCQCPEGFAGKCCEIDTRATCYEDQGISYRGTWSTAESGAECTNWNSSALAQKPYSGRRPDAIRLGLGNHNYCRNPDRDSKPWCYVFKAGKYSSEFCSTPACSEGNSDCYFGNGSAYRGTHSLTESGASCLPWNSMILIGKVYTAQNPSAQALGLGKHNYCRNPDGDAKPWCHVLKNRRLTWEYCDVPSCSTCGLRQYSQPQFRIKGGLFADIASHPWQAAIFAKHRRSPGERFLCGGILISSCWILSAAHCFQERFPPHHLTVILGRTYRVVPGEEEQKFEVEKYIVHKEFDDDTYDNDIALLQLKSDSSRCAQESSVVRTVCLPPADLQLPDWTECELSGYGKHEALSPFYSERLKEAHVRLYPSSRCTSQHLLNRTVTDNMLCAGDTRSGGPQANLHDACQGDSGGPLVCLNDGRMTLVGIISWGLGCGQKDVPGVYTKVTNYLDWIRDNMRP

| SMILES | Enzyme Kass, Xa (factor Xa) [L/mol × 10^6] | Enzyme Kass, Plasmin (Human plasmin) [L/mol × 10^6] | Enzyme Kass, Trypsin (Bovine trypsin) [L/mol × 10^6] | Enzyme Kass, t-Pa [3] [L/mol × 10^6] | Enzyme Kass, Human Thrombin (human thrombin) [L/mol × 10^6] | 2 × Clotting time, PT (Human Plasma [1]) | 2 × Clotting time, TT (Human Plasma [2]) [ng/mL] | 2 × Clotting time, APTT (Human Plasma [4]) |
| --- | --- | --- | --- | --- | --- | --- | --- | --- |
| CCS(=O)(=O)N[C@@H](C(=O)N1CCC[C@H]1C(=O)N[C@H](C=O)CCCNC(=N)N)C1CCCCC1.Cl [Example 22, EtSO2 -D-Chg-Pro-Arg-H.HCl] | 24 | 13 | 260 | 0.11 | 260 | 1,100 ng/ML | 46 | 330 ng/mL |
| Cl.N=C(N)NCCC[C@@H](C=O)NC(=O)[C@@H]1CCCN1C(=O)[C@@H](Cc1ccccc1)NC(=O)C(F)(F)F [Example 25, CF3 CO-D-Phe-Pro-Arg-H.HCl] | 0.033 | 0.31 | 15 | 0.17 | 26 | 1,800 ng/ML | 59 | 1,300 ng/ML |
| CCCN(CCC)S(=O)(=O)c1ccc(C(=O)N[C@H](Cc2ccccc2)C(=O)N2CCC[C@H]2C(=O)N[C@H](C=O)CCCNC(=N)N)cc1.Cl [Example 29, 4-(n-Pr2 NSO2)-C6 H4 CO-D-Phe-Pro-Arg-H.HCl] | 0.32 | 0.86 | 15 | 0.62 | 43 | 4,800 ng/ML | 150 | 3,500 ng/ML |
| COCC(=O)N[C@H](Cc1ccccc1)C(=O)N1CCC[C@H]1C(=O)N[C@H](C=O)CCCNC(=N)N.Cl [Example 24, CH3 OCH2 CO-D-Phe-Pro-Arg-H.HCl] | 0.29 | 3.8 | 57 | 0.30 | 33 | 1,200 ng/ML | 38 | 440 ng/mL |

Second part, led by results:

| Enzyme Kass, Xa (factor Xa) [L/mol × 10^6] | Enzyme Kass, Plasmin (Human plasmin) [L/mol × 10^6] | Enzyme Kass, Trypsin (Bovine trypsin) [L/mol × 10^6] | Enzyme Kass, t-Pa [3] [L/mol × 10^6] | Enzyme Kass, Human Thrombin (human thrombin) [L/mol × 10^6] | SMILES | 2 × Clotting time, PT (Human Plasma [1]) | 2 × Clotting time, TT (Human Plasma [2]) [ng/mL] | 2 × Clotting time, APTT (Human Plasma [4]) |
| --- | --- | --- | --- | --- | --- | --- | --- | --- |
| 0.10 | 0.54 | 14 | 0.37 | 29 | Cl.N=C(N)NCCC[C@@H](C=O)NC(=O)[C@@H]1CCCN1C(=O)[C@@H](Cc1ccccc1)NC(=O)Cc1ccccc1 [Example 26, PhCH2 CO-D-Phe-Pro-Arg-H.HCl] | 2,000 ng/ML | 64 | 1,100 ng/ML |
| 0.066 | 0.28 | 14 | 0.11 | 3.4 | CC(=O)N[C@H](Cc1ccccc1)C(=O)N1CCC[C@H]1C(=O)N[C@H](C=O)CCCN=C(N)N.Cl [Example 23, Ac-D-Phe-Pro-Arg-H.HCl] | 4,100 ng/ML | 140 | 2,700 ng/ML |
| 4.6 | 25 | 7.9 | 1.1 | 320 | Cl.Cn1c(C(=O)NC(CC2CCCCC2)C(=O)N2CCCC2C(=O)NC(C=O)CCCN=C(N)N)cc2ccccc21 [Example 5, NMI-D-Cha-Pro-Arg-H.HCl] | 2,500 ng/ML | 110 | 1,000 ng/ML |
| 3.3 |  |  |  | 695 | Cl.N=C(N)NCCC[C@@H](C=O)NC(=O)[C@@H]1CCCN1C(=O)[C@@H](Cc1ccccc1)NCC(=O)O [Example 35, HOOCCH2 -D-Phe-Pro-ArgH.HCl] | 1129 ng/mL | 14 | 723 ng/mL |
| 8.8 | 9.5 | 150 | 1.5 | 200 | COc1ccc(OC)c(S(=O)(=O)N[C@H](Cc2ccccc2)C(=O)N2CCC[C@H]2C(=O)N[C@H](C=O)CCCNC(=N)N)c1.Cl [Example 15, 2,5-(MeO)2 -PhSO2 -D-Phe-Pro-Arg-H-HCl] | 2,000 ng/ML | 92 | 550 ng/mL |
| 0.064 | 0.24 | 5.9 | 0.26 | 20 | Cl.N=C(N)NCCC[C@@H](C=O)NC(=O)[C@@H]1CCCN1C(=O)[C@@H](Cc1ccccc1)NC(=O)C1CCCCC1 [Example 27, cyclohexyl-CO-D-Phe-Pro-Arg-H.HCl] | 1,800 ng/ML | 63 | 1,300 ng/ML |
| 40.5 |  |  |  | 556 | Cl.N=C(N)NCCC[C@@H](C=O)NC(=O)[C@@H]1CCCN1C(=O)[C@@H](CC1CCCCC1)NCC(=O)O [Example 36, HOCCH2 -D-Cha-Pro-ArgH.HCl] | 695 ng/mL | 9 | 284 ng/mL |
